Experimental data: PubChem BioAssay (NCI)
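The compound was tested at five concentrations on cells cultured in 96-well plates, with a 48-hour exposure period. TGI: total growth inhibition.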

How the values were obtained:
Assay in all cases: inhibition of tumour cell growth, NCI panel, 48 h
LXFL 529 NSCLC = test system: LXFL 529 NSCLC
DLD-1 colon = test system: DLD-1 colon
HOP-18 NSCLC = test system: HOP-18 NSCLC

SMILES	TGI (LXFL 529 NSCLC) [µM]	TGI (DLD-1 colon) [µM]	TGI (HOP-18 NSCLC) [µM]
COc1ccc(C2c3cc4c(cc3OC(O)(CO)C2C(=O)O)OCO4)cc1 (centres undefined) (tested in a mixture with another compound)	31.1	54.9	> 100
COC1CC(CC2CCC(C)C(C(C)C(=O)O)O2)OC2(OC(C)(C3CCC(C)(C4OC(C5OC(O)(CO)C(C)CC5C)CC4C)O3)CC2C)C1C (centres undefined)	4.02	14.1	11.5
CCOC(=O)C(=O)NCCCN1CCOCC1	> 100	> 100	> 100
Cc1ccccc1NC(=O)CC(=O)N1N=C(N2c3ccccc3Sc3ccccc32)CC1c1ccccc1 (centres undefined)	> 100	> 100	
CC(=O)Oc1ccc(CO)cc1OC(C)=O	> 100	> 100	> 100
